Measurements published in PubChem BioAssay (NCI).
Where “and” joins values, the source holds several entries; their conditions need not be identical. Equal entries are not always repeated.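 Compound exposure: 48 hours, 5 concentrations, 96-well plates. GI50: concentration for 50% inhibition of growth. TGI marks complete inhibition of growth.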

Key:
Assay in all cases: inhibition of tumour cell growth, NCI panel, 48 h
K-562 leukemia = tested on: K-562 leukemia
SR leukemia = tested on: SR leukemia
HOP-92 NSCLC = tested on: HOP-92 NSCLC
HCT-116 colon = tested on: HCT-116 colon
A549 NSCLC = tested on: A549 NSCLC
SNB-75 CNS = tested on: SNB-75 CNS
SF-539 CNS = tested on: SF-539 CNS
OVCAR-3 ovarian = tested on: OVCAR-3 ovarian
HCT-15 colon = tested on: HCT-15 colon
MCF7 breast = tested on: MCF7 breast

SMILES	GI50 (K-562 leukemia) [nM]	TGI (K-562 leukemia)	GI50 (SR leukemia) [nM]	TGI (SR leukemia) [µM]	GI50 (HOP-92 NSCLC) [nM]	TGI (HOP-92 NSCLC) [µM]	GI50 (HCT-116 colon) [nM]	TGI (HCT-116 colon)	GI50 (A549 NSCLC)	TGI (A549 NSCLC)	GI50 (SNB-75 CNS)	TGI (SNB-75 CNS)	GI50 (SF-539 CNS)	TGI (SF-539 CNS)	GI50 (OVCAR-3 ovarian)	TGI (OVCAR-3 ovarian)	GI50 (HCT-15 colon) [nM]	TGI (HCT-15 colon)	TGI (MCF7 breast) [µM]	GI50 (MCF7 breast) [nM]
Nc1ccc(CC[C@H]2CCC/C=C/[C@@H]3C[C@H](O)C[C@H]3[C@H](O)/C=C/C(=O)O2)cc1	43	> 100 µM	34.8	7.51	43.6	0.53	31.4	0.114 µM	43.7 nM	> 100 µM	18.9 nM	> 100 µM	56.2 nM	> 100 µM	28.2 nM	0.0769 µM	45.5	16.7 µM	–	–
O=C(N/C(=C\c1ccc([N+](=O)[O-])cc1)c1nc2ccccc2s1)c1ccccc1	–	59.2 µM	–	–	–	68.8	–	> 100 µM	–	> 100 µM	–	63.5 µM	–	55.1 µM	–	> 100 µM	–	> 100 µM	–	–
C/C=C/C=C/c1cc2cc3c(c(O)c2c(=O)[nH]1)C1(CC3)C(O)=c2c(=O)c3c(=O)cc(OC)c(=O)c=3c(=O)c2=C1O (stereo not given)	–	> 38.4 µM	–	–	415	2.28	–	–	183 nM and 1400 nM	4.69 µM and 13.6 µM	56.7 nM and 545 nM	0.511 µM and 1.72 µM	363 nM and 2330 nM	2.48 µM and 10.6 µM	200 nM and 1700 nM	1.37 µM and 8.57 µM	–	3.68 µM and 15.1 µM	0.215	–
[Br][Pb]([c]1ccccc1)([c]1ccccc1)[c]1ccccc1	139	–	103	> 100	–	–	176	0.352 µM	356 nM	1.29 µM	99.3 nM	0.389 µM	252 nM	0.596 µM	139 nM	0.272 µM	148	0.329 µM	0.303	159
CCOc1ccc2nc(NC(=O)C(=O)C3C(=O)C(CC4C(=O)c5ccccc5C4=O)C(=O)CC3(C)C)sc2c1 (stereo not given)	–	–	–	–	–	> 100	–	> 100 µM	–	> 100 µM	–	> 100 µM	–	> 100 µM	–	> 100 µM	–	> 100 µM	> 100	–
N#C/C(=C\c1ccc(O)cc1)C(N)=O	–	> 100 µM	–	–	–	> 100	–	> 100 µM	–	> 100 µM	> 49900 nM and 12700 nM	> 94.3 µM and 54.7 µM	–	> 100 µM	–	> 100 µM	–	> 100 µM	> 100	–
OC12CCC3(OC4CCCCO4)c4ccccc4C3C1c1ccccc12 (stereo not given)	–	> 100 µM	–	> 100	–	–	–	> 100 µM	–	> 100 µM	–	> 100 µM	–	–	–	–	–	> 100 µM	–	–
C=CCNC(=S)NNC(=O)c1c(C)nc2sccn12	–	> 100 µM	–	> 100	–	> 100	–	> 100 µM	–	> 100 µM	–	–	–	> 100 µM	–	> 100 µM	–	> 100 µM	–	–
CCCC1C[C@H]2CCCCN2[C@H]2CCCN12 (stereo not given in full)	–	> 88.4 µM	–	> 64	–	> 100	–	> 66.2 µM	–	> 100 µM	–	> 100 µM	–	> 100 µM	–	> 100 µM	–	> 75.5 µM	–	–
O=P(CN1CCOCC1)(c1ccccc1)c1ccccc1	–	> 100 µM	–	–	–	> 100	–	> 100 µM	–	> 100 µM	–	> 100 µM	–	> 100 µM	–	> 100 µM	–	> 100 µM	–	–
CCOc1ccc(NC(=O)CC2SC(=Nc3ccc(C)cc3)NC2=O)cc1 (stereo not given)	–	–	–	> 100	–	–	–	> 100 µM	–	> 100 µM	–	> 100 µM	–	> 100 µM	–	> 100 µM	–	> 100 µM	–	–
COC(=O)c1c(C)nc(C)c2c1C(=O)C(Br)=C(NCc1ccccc1)C2=O	3360	> 100 µM	–	–	2460	5.78	2500	7.22 µM	2560 nM	6.64 µM	–	–	2850 nM	8.01 µM	2270 nM	6.16 µM	2760	8.26 µM	3.29	1300
COc1ccc(OC)c2c(C(C)=O)cccc12	–	> 100 µM	–	> 100	–	–	–	> 100 µM	–	> 100 µM	–	–	–	> 100 µM	–	> 100 µM	–	> 100 µM	> 100	–
COc1ccc(/C=C/C(=O)c2c(-c3ccccc3)nn(C)c(=O)c2N2CC2C)cc1 (stereo not given)	–	> 100 µM	–	–	–	> 100	–	> 100 µM	–	> 100 µM	–	73.9 µM	–	> 100 µM	–	67.7 µM	–	80.5 µM	–	–
N=C(N)c1ccc2oc3ccc(C(=N)N)cc3c(=O)c2c1	–	> 100 µM	–	–	–	> 100	–	> 100 µM	–	> 100 µM	–	> 100 µM	–	> 100 µM	–	> 100 µM	–	> 100 µM	> 100	–
Cc1cc(Cl)ccc1N=C1NC(=O)C(CC(=O)Nc2cccc(Cl)c2)S1 (stereo not given)	–	> 100 µM	–	–	–	69.8	–	> 100 µM	–	> 100 µM	–	> 100 µM	–	> 100 µM	–	> 100 µM	–	> 100 µM	–	–
FC(F)(F)c1ccccc1C1SCc2nc3ccccc3n21 (stereo not given)	–	> 100 µM	–	> 100	–	53.3	–	> 100 µM	–	> 100 µM	–	> 100 µM	–	> 100 µM	–	> 100 µM	–	–	–	–
CC1[C@@]2(CCC(C)(C)O2)O[C@@H]2C=C3C4CCC5Cc6nc7c(nc6C[C@@]5(C)C4C[C@H](O)[C@@]3(C)[C@]12O)CC1CCC2C3=C[C@H]4O[C@@]5(O[C@@](C)(CO)C[C@@H]5O)C(C)[C@@]4(O)[C@]3(C)[C@@H](O)CC2[C@]1(C)C7 (stereo not given in full)	10.3	0.44 µM and 0.445 µM	–	–	2.28	–	27.3	0.719 µM and 0.493 µM	2.8 nM	0.711 µM	< 0.365 nM	–	3.03 nM	0.0418 µM and 0.0415 µM	435 nM	1.11 µM	9.07	0.732 µM and 0.075 µM	0.524	–
COc1ccc(/C=C/C(=N\NC(=O)c2ccccc2)c2sc(Nc3ccc([N+](=O)[O-])cc3)nc2C)cc1OC	–	> 100 µM	–	> 100	–	6.41	–	> 100 µM	–	28.9 µM	–	17.8 µM	–	69.8 µM	–	61.5 µM	–	28.5 µM	–	–
CCN(CC)CCOC(COc1cc(C)cc(C)c1)COc1cc(C)cc(C)c1	–	–	–	–	–	–	3310	14.9 µM	4560 nM	16.9 µM	5750 nM	20.8 µM	1620 nM	3.3 µM	3460 nM	13 µM	3010	12.4 µM	5.33	2170
COc1cc2c(oc(=O)c3c4occc4cc(OC)c23)c2cccc(O)c12	–	> 100 µM	–	–	–	> 100	–	> 100 µM	–	> 100 µM	–	> 100 µM	–	> 100 µM	–	> 100 µM	–	> 100 µM	–	–
